Source: patent publication US5008267A, “Pyrimidinedione compounds, method of producing the same and antiarrythmic agents containing the same” (Mitsui Toatsu Chemicals, Incorporated, priority 1988, dated 1991)
Structures can show the parent of a compound that is named as a salt.

How the values were obtained:
[1] = test system: Purkinje fiber of the right ventricular free wall (myocardial action potential); experiment: Influence on myocardial action potential duration time (APD75), isolated right ventricular free wall, microelectrode in Purkinje fiber; assay type: cell-based, dog; conditions: Canis lupus familiaris, 20 min, 20 minutes' incubation, (B-A)/A×100, read-out: APD75 (%); for activation at 3 µg/mL: 3.0 μg/ml; for activation at 10 µg/mL: 10.0 μg/ml; for activation at 1 µg/mL: 1.0 μg/ml
[2] = Toxicity test, mortality rate 24 hours after administration; conditions: mouse, in vivo
Protocol: Each of the compounds prepared in the above-mentioned examples was administered into a mouse (ddY strain, male). In each case, oral administration (p.o.) and intra peritoneal administration (i.p.) were separately carried out in a dose of 300 mg/kg and 250 mg/kg, respectively.
A mortality rate (number of specimens: one group=2 to 4 mice) of the mice 24 hours after the administration was calculated, and the results are set forth in Table 3.
Following the same procedure as in Toxicity Test 1, toxicity of the respective compounds prepared in the above examples in Table 5 was tested to calculate a mortality rate of mice.
Administration was made by oral administration (p.o.) in an amount of 300 mg/kg of each compound for one mouse.
Following the same procedure as in Toxicity Test 1, toxicity of the respective compounds prepared in the above examples in Table 7 was tested to calculate a mortality rate of mice.

[3] = test system: ventricular muscle refractory period; experiment: Influence on ventricular muscle refractory period (ERP); assay type: in vivo, mongrel dog; conditions: Canis lupus familiaris, iv, i.v., (W-Y)/Y×100, read-out: ERP (%; extensibility of refractory period)
Method in brief: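 Anesthetized (pentobarbital 30 mg/kg i.v.) mongrel dog, compound given i.v. or intraduodenally; right ventricle paced via bipolar electrodes at 400 msec, 4 msec pulses, twice threshold, sinus pacemaker abolished with alcohol. Refractory period taken as shortest inter-train interval (10 msec steps) losing response; ERP (%) = (after − before)/before × 100.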

| Structure (SMILES) | activation at 3 µg/mL [1] [%] | activation at 10 µg/mL [1] [%] | mortality at 24 h ([2]; po, 300 mg/kg (p.o.)) [%] | change in vivo at 0.1 mg/kg [3] [%] | change in vivo at 0.3 mg/kg [3] [%] | change in vivo at 1 mg/kg [3] [%] | change in vivo at 3 mg/kg [3] [%] | activation at 1 µg/mL [1] [%] | mortality at 24 h ([2]; ip, 250 mg/kg (i.p.)) [%] |
| --- | --- | --- | --- | --- | --- | --- | --- | --- | --- |
| Cn1c(N2CCN(CCc3ccccc3[N+](=O)[O-])CC2)cc(=O)n(C)c1=O [Compound 10, 1,3-dimethyl-6-{4-[2-(2-nitrophenyl)ethyl]piperazin-1yl}-2,4(1H,3H)-pyrimidinedione oxalate] | 2 | 11 | 0 | 6.7 | 6.7 | 13.3 | 20 | – | – |
| Cn1c(N2CCN(CCCOc3ccc(C(=O)c4ccccc4)cc3[N+](=O)[O-])CC2)cc(=O)n(C)c1=O [Compound 78, 1,3-dimethyl-6-{4-[3-(4-benzoyl-2-nitrophenoxy)propyl]piperazin-1-yl}-2,4(1H,3H)-pyrimidinedione oxalate] | 42 | – | 0 | 6.7 | 13.3 | 20 | 26.7 | 19 | – |
| C=CCOc1cc([N+](=O)[O-])ccc1OCCCN1CCN(c2cc(=O)n(C)c(=O)n2C)CC1 [Compound 161, 1,3-dimethyl-6-{4-[3-(2-allyloxy-4-nitrophenyloxy)propyl]piperazin-1-yl}-2,4(1H,3H)-pyrimidinedione hydrochloride] | 39 | – | 0 | 0 | 6.7 | 6.7 | 6.7 | 26 | – |
| Cn1c(N2CCN(CCCSc3ccc([N+](=O)[O-])cc3)CC2)cc(=O)n(C)c1=O [Compound 51, 1,3-dimethyl-6-{4-[3-(4-nitrophenylthio)propyl]piperazin-1-yl}-2,4(1H,3H)-pyrimidinedione oxalate] | 33 | – | 0 | 12.6 | 12.6 | 19 | – | – | – |
| CSc1ccc(OCCCN2CCN(c3cc(=O)n(C)c(=O)n3C)CC2)c([N+](=O)[O-])c1 [Compound 147, 1,3-dimethyl-6-{4-[3-(4-methylthio-2-nitrophenyloxy)propyl]piperazin-1-yl}-2,4(1H,3H)-pyrimidinedione hydrochloride] | 18 | – | 0 | 0 | 0 | 0 | – | 14 | – |
| CCN(CCCc1ccc([N+](=O)[O-])cc1)CCNc1cc(=O)n(C)c(=O)n1C [Compound 4, 1,3-dimethyl-6-{2-<N-ethyl-N-[3-(4-nitrophenyl)propyl]amino>ethylamino}-2,4(1H,3H)-pyrimidinedione hydrochloride] | 16 | – | 0 | 5.6 | 11.1 | 16.7 | 16.7 | 11 | 0 |
| CC(=O)OCCN(CCCc1ccc([N+](=O)[O-])cc1)CCNc1cc(=O)n(C)c(=O)n1C [Compound 167, 1,3-dimethyl-6-{2-[N-(2-acetoxyethyl)-3-(4-nitrophenyl)propylamino]ethylamino}-2,4(1H,3H)-pyrimidinedione oxalate] | 21 | 26 | 0 | 8 | 8 | 15 | 15 | 16 | – |
| Cn1c(N2CCN(CCCOc3ccc([N+](=O)[O-])cc3C(=O)c3ccccc3)CC2)cc(=O)n(C)c1=O [Compound 80, 1,3-dimethyl-6-{4-[3-(2-benzoyl-4-nitrophenoxy)propyl]piperazin-1-yl}-2,4(1H,3H)-pyrimidinedione oxalate] | 30 | 34 | 0 | 2.6 | 9.7 | 21.9 | – | 19 | – |
